Data taken from PubChem BioAssay (NCI).
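Briefly, cells in 96-well plates were exposed to five compound concentrations for 48 h, and endpoints were estimated by linear interpolation. TGI: concentration producing complete growth inhibition.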

Assays:
Experiment in all cases: NCI anticancer screen, dose series, 48 h
OVCAR-4 ovarian = system: OVCAR-4 ovarian
MALME-3M melanoma = system: MALME-3M melanoma
NCI-H522 lung = system: NCI-H522 lung
NCI-H226 lung = system: NCI-H226 lung
HOP-92 NSCLC = system: HOP-92 NSCLC
CAKI-1 renal = system: CAKI-1 renal
KM20L2 colon = system: KM20L2 colon
NCI-H23 lung = system: NCI-H23 lung
EKVX NSCLC = system: EKVX NSCLC
A498 renal = system: A498 renal
SNB-19 CNS = system: SNB-19 CNS
HOP-62 NSCLC = system: HOP-62 NSCLC
SNB-78 CNS = system: SNB-78 CNS
TK-10 renal = system: TK-10 renal
LXFL 529 NSCLC = system: LXFL 529 NSCLC
A549 NSCLC = system: A549 NSCLC
DLD-1 colon = system: DLD-1 colon
SK-MEL-5 melanoma = system: SK-MEL-5 melanoma
RPMI-8226 leukemia = system: RPMI-8226 leukemia
UACC-257 melanoma = system: UACC-257 melanoma
M19-MEL melanoma = system: M19-MEL melanoma
LOX IMVI melanoma = system: LOX IMVI melanoma
RXF-631 renal = system: RXF-631 renal
SF-268 CNS = system: SF-268 CNS
SW-620 colon = system: SW-620 colon
RXF 393 renal = system: RXF 393 renal
CCRF-CEM leukemia = system: CCRF-CEM leukemia
OVCAR-8 ovarian = system: OVCAR-8 ovarian
HT29 colon = system: HT29 colon
K-562 leukemia = system: K-562 leukemia
IGROV1 ovarian = system: IGROV1 ovarian
SK-MEL-2 melanoma = system: SK-MEL-2 melanoma
NCI-H460 lung = system: NCI-H460 lung
DMS 273 small cell lung = system: DMS 273 small cell lung
MOLT-4 leukemia = system: MOLT-4 leukemia
U251 CNS = system: U251 CNS
HOP-18 NSCLC = system: HOP-18 NSCLC
HCT-15 colon = system: HCT-15 colon
OVCAR-3 ovarian = system: OVCAR-3 ovarian
COLO 205 colon = system: COLO 205 colon
786-0 renal = system: 786-0 renal
SNB-75 CNS = system: SNB-75 CNS
UO-31 renal = system: UO-31 renal
UACC-62 melanoma = system: UACC-62 melanoma
SF-295 CNS = system: SF-295 CNS
HCC-2998 colon = system: HCC-2998 colon
DMS 114 small cell lung = system: DMS 114 small cell lung
SF-539 CNS = system: SF-539 CNS
SK-MEL-28 melanoma = system: SK-MEL-28 melanoma
M14 melanoma = system: M14 melanoma
KM12 colon = system: KM12 colon
ACHN renal = system: ACHN renal
HCT-116 colon = system: HCT-116 colon
SN12C renal = system: SN12C renal
OVCAR-5 ovarian = system: OVCAR-5 ovarian
HL-60(TB) leukemia = system: HL-60(TB) leukemia
SR leukemia = system: SR leukemia
XF 498 CNS = system: XF 498 CNS
SK-OV-3 ovarian = system: SK-OV-3 ovarian

`CCC1(CN(C)C)CC/C(=C\c2ccc(OC)cc2)C1=O` (stereo unspecified) gave a TGI (OVCAR-4 ovarian) greater than 100 µM, a TGI (MALME-3M melanoma) greater than 100 µM and a TGI (NCI-H522 lung) greater than 100 µM. It also gave a TGI (NCI-H226 lung) greater than 100 µM, a TGI (HOP-92 NSCLC) greater than 100 µM and a TGI (CAKI-1 renal) greater than 100 µM. The TGI (KM20L2 colon) was greater than 100 µM, the TGI (NCI-H23 lung) was greater than 100 µM and the TGI (EKVX NSCLC) was greater than 100 µM. The TGI (A498 renal) was greater than 100 µM, the TGI (SNB-19 CNS) was greater than 100 µM and the TGI (HOP-62 NSCLC) was greater than 100 µM. For the same compound, the TGI (SNB-78 CNS) was greater than 100 µM, the TGI (TK-10 renal) was greater than 100 µM and the TGI (LXFL 529 NSCLC) was greater than 100 µM. It also gave a TGI (A549 NSCLC) greater than 100 µM, a TGI (DLD-1 colon) greater than 100 µM and a TGI (SK-MEL-5 melanoma) greater than 100 µM. The TGI (RPMI-8226 leukemia) was greater than 100 µM, the TGI (UACC-257 melanoma) was greater than 100 µM and the TGI (M19-MEL melanoma) was greater than 100 µM. It also gave a TGI (LOX IMVI melanoma) greater than 100 µM, a TGI (RXF-631 renal) greater than 100 µM and a TGI (SF-268 CNS) greater than 100 µM. The TGI (SW-620 colon) was greater than 100 µM, the TGI (RXF 393 renal) was greater than 100 µM and the TGI (CCRF-CEM leukemia) was greater than 100 µM. The TGI (OVCAR-8 ovarian) was greater than 100 µM, the TGI (HT29 colon) was greater than 100 µM and the TGI (K-562 leukemia) was greater than 100 µM. It also gave a TGI (IGROV1 ovarian) greater than 100 µM, a TGI (SK-MEL-2 melanoma) greater than 100 µM and a TGI (NCI-H460 lung) greater than 100 µM. For the same compound, the TGI (DMS 273 small cell lung) was greater than 100 µM, the TGI (MOLT-4 leukemia) was greater than 100 µM and the TGI (U251 CNS) was greater than 100 µM. It also gave a TGI (HOP-18 NSCLC) greater than 100 µM, a TGI (HCT-15 colon) greater than 100 µM and a TGI (OVCAR-3 ovarian) greater than 100 µM. For the same compound, the TGI (COLO 205 colon) was greater than 100 µM, the TGI (786-0 renal) was greater than 100 µM and the TGI (SNB-75 CNS) was greater than 100 µM. It also gave a TGI (UO-31 renal) greater than 100 µM, a TGI (UACC-62 melanoma) greater than 100 µM and a TGI (SF-295 CNS) greater than 100 µM. It also gave a TGI (HCC-2998 colon) greater than 100 µM, a TGI (DMS 114 small cell lung) greater than 100 µM and a TGI (SF-539 CNS) greater than 100 µM. It also gave a TGI (SK-MEL-28 melanoma) greater than 100 µM, a TGI (M14 melanoma) greater than 100 µM and a TGI (KM12 colon) greater than 100 µM. For the same compound, the TGI (ACHN renal) was greater than 100 µM, the TGI (HCT-116 colon) was greater than 100 µM and the TGI (SN12C renal) was greater than 100 µM. For the same compound, the TGI (OVCAR-5 ovarian) was greater than 100 µM.
`CC(=O)OC(OC(C)=O)c1ncccc1C(=O)OC(C)C` gave a TGI (OVCAR-4 ovarian) greater than 100 µM, a TGI (MALME-3M melanoma) greater than 100 µM and a TGI (NCI-H522 lung) greater than 100 µM. For the same compound, the TGI (NCI-H226 lung) was greater than 100 µM, the TGI (HOP-92 NSCLC) was greater than 100 µM and the TGI (CAKI-1 renal) was greater than 100 µM. The TGI (KM20L2 colon) was greater than 100 µM, the TGI (NCI-H23 lung) was greater than 100 µM and the TGI (EKVX NSCLC) was greater than 100 µM. It also gave a TGI (A498 renal) greater than 100 µM, a TGI (SNB-19 CNS) greater than 100 µM and a TGI (HOP-62 NSCLC) greater than 100 µM. The TGI (SNB-78 CNS) was greater than 100 µM, the TGI (TK-10 renal) was greater than 100 µM and the TGI (LXFL 529 NSCLC) was greater than 100 µM. The TGI (A549 NSCLC) was greater than 100 µM, the TGI (DLD-1 colon) was greater than 100 µM and the TGI (SK-MEL-5 melanoma) was greater than 100 µM. It also gave a TGI (UACC-257 melanoma) greater than 100 µM, a TGI (M19-MEL melanoma) greater than 100 µM and a TGI (LOX IMVI melanoma) greater than 100 µM. The TGI (SF-268 CNS) was greater than 100 µM, the TGI (SW-620 colon) was greater than 100 µM and the TGI (RXF 393 renal) was greater than 100 µM. For the same compound, the TGI (CCRF-CEM leukemia) was 49.1 µM, the TGI (HL-60(TB) leukemia) was 28.9 µM and the TGI (OVCAR-8 ovarian) was greater than 100 µM. For the same compound, the TGI (HT29 colon) was greater than 100 µM, the TGI (K-562 leukemia) was greater than 100 µM and the TGI (IGROV1 ovarian) was greater than 100 µM. The TGI (SK-MEL-2 melanoma) was greater than 100 µM, the TGI (NCI-H460 lung) was greater than 100 µM and the TGI (DMS 273 small cell lung) was greater than 100 µM. It also gave a TGI (MOLT-4 leukemia) greater than 100 µM, a TGI (U251 CNS) greater than 100 µM and a TGI (SR leukemia) greater than 100 µM. It also gave a TGI (XF 498 CNS) greater than 100 µM, a TGI (HOP-18 NSCLC) greater than 100 µM and a TGI (HCT-15 colon) greater than 100 µM. The TGI (OVCAR-3 ovarian) was greater than 100 µM, the TGI (COLO 205 colon) was greater than 100 µM and the TGI (SK-OV-3 ovarian) was greater than 100 µM. The TGI (786-0 renal) was greater than 100 µM, the TGI (SNB-75 CNS) was greater than 100 µM and the TGI (UO-31 renal) was greater than 100 µM. For the same compound, the TGI (UACC-62 melanoma) was greater than 100 µM, the TGI (SF-295 CNS) was greater than 100 µM and the TGI (HCC-2998 colon) was greater than 100 µM. It also gave a TGI (DMS 114 small cell lung) greater than 100 µM, a TGI (SF-539 CNS) greater than 100 µM and a TGI (SK-MEL-28 melanoma) greater than 100 µM. It also gave a TGI (M14 melanoma) greater than 100 µM, a TGI (KM12 colon) greater than 100 µM and a TGI (ACHN renal) greater than 100 µM. The TGI (HCT-116 colon) was greater than 100 µM, the TGI (SN12C renal) was greater than 100 µM and the TGI (OVCAR-5 ovarian) was greater than 100 µM.
`Cc1cc(C)nc(NS(=O)(=O)c2ccc(Nc3c4ccccc4nc4c(C(=O)N5CCN(CCO)CC5)ccc(Cl)c34)cc2)n1` gave a TGI (OVCAR-4 ovarian) greater than 100 µM, a TGI (MALME-3M melanoma) greater than 100 µM and a TGI (NCI-H226 lung) greater than 100 µM. The TGI (HOP-92 NSCLC) was greater than 100 µM, the TGI (CAKI-1 renal) was greater than 100 µM and the TGI (KM20L2 colon) was greater than 100 µM. For the same compound, the TGI (NCI-H23 lung) was greater than 100 µM, the TGI (A498 renal) was greater than 100 µM and the TGI (SNB-19 CNS) was greater than 100 µM. For the same compound, the TGI (HOP-62 NSCLC) was greater than 100 µM, the TGI (SNB-78 CNS) was greater than 100 µM and the TGI (TK-10 renal) was greater than 100 µM. For the same compound, the TGI (A549 NSCLC) was greater than 100 µM, the TGI (SK-MEL-5 melanoma) was greater than 100 µM and the TGI (RPMI-8226 leukemia) was greater than 100 µM. For the same compound, the TGI (UACC-257 melanoma) was greater than 100 µM, the TGI (M19-MEL melanoma) was greater than 100 µM and the TGI (RXF-631 renal) was greater than 100 µM. It also gave a TGI (SF-268 CNS) greater than 100 µM, a TGI (RXF 393 renal) greater than 100 µM and a TGI (CCRF-CEM leukemia) greater than 100 µM. The TGI (HL-60(TB) leukemia) was greater than 100 µM, the TGI (OVCAR-8 ovarian) was greater than 100 µM and the TGI (HT29 colon) was greater than 100 µM. For the same compound, the TGI (K-562 leukemia) was greater than 100 µM, the TGI (IGROV1 ovarian) was greater than 100 µM and the TGI (SK-MEL-2 melanoma) was greater than 100 µM. The TGI (NCI-H460 lung) was greater than 100 µM, the TGI (DMS 273 small cell lung) was greater than 100 µM and the TGI (MOLT-4 leukemia) was greater than 100 µM. The TGI (U251 CNS) was greater than 100 µM, the TGI (HCT-15 colon) was greater than 100 µM and the TGI (OVCAR-3 ovarian) was greater than 100 µM. The TGI (COLO 205 colon) was greater than 100 µM, the TGI (SK-OV-3 ovarian) was greater than 100 µM and the TGI (786-0 renal) was greater than 100 µM. The TGI (SNB-75 CNS) was greater than 100 µM, the TGI (UO-31 renal) was greater than 100 µM and the TGI (UACC-62 melanoma) was greater than 100 µM. The TGI (SF-295 CNS) was greater than 100 µM, the TGI (HCC-2998 colon) was greater than 100 µM and the TGI (DMS 114 small cell lung) was greater than 100 µM. The TGI (SF-539 CNS) was greater than 100 µM, the TGI (SK-MEL-28 melanoma) was greater than 100 µM and the TGI (M14 melanoma) was greater than 100 µM. The TGI (KM12 colon) was greater than 100 µM, the TGI (HCT-116 colon) was greater than 100 µM and the TGI (SN12C renal) was greater than 100 µM. For the same compound, the TGI (OVCAR-5 ovarian) was greater than 100 µM.
